Holding throughout (type): cell-based
For one test, the system named is WNT/β-catenin signaling. Put plainly: luciferase-based WNT/β-catenin signaling reporter assay in HEK293 cells. The note with it: Homo sapiens, HEK293, read-out: WNT reporter IC50. As for the experimental part: (§1) The cell lines where obtained from ATCC or the Japanese Collection of Research Bioresources (JCRB) in 2014 and culturing was performed as described previously ([7]). The cell cultures were kept below 20 passages (∼10 weeks) and routinely monitored (upon thawing and monthly) for Mycoplasma infections with MycoAlert Mycoplasma Detection Kit (Lonza). All cell lines were authenticated by short tandem repeat profiling to confirm their identity (Eurofins). TNKS1/2 and PARP1 biochemical assays ([27, 32]), luciferase-based WNT/β-catenin signaling pathway reporter assay ([22, 27, 32]), anti-proliferative assays, and NCI-60 tumor cell line panel screen ([7]), immunoblot analyses ([7, 32, 39]), RNA isolation, and real-time qRT-PCR ([7, 27, 39, 40]) were performed as previously described.
(In general: A reporter such as luciferase makes a cellular process visible.)

Test [1] relates to COLO 320DM colon carcinoma cells. Put plainly: MTS colorimetric cell growth assay, COLO 320DM. The note with it: Homo sapiens, 120 h, read-out: COLO320DM GI50.
Text: as §1, with “The” for “The cell lines where obtained from ATCC or the Japanese Collection of Research Bioresources (JCRB) in 2014 and culturing was performed as described previously ([7]). The”
(§2) B, IC50 values for inhibition of TNKS1, TNKS2, and PARP1 (biochemical assays) and luciferase-based WNT/β-catenin signaling reporter assay in HEK293 cells (WNT reporter). […] Mean ± SD values from a minimum of three independent experiments are shown. For B and C, numbers in superscript indicate data from reference 22, 27, 31, and 32. […] C, MTS colorimetric cell growth assay for various concentrations of tankyrase inhibitors in treated COLO 320DM and RKO colon cancer cells. […] Data from one representative experiment of more than three repeated assays, each with six replicates, are shown.

Test [2] has as its system RKO colon carcinoma cells. The experiment in a line: MTS colorimetric cell growth assay, RKO. The conditions noted are these: Homo sapiens, 120 h, read-out: RKO GI50.
Text: as §1, with “The” for “The cell lines where obtained from ATCC or the Japanese Collection of Research Bioresources (JCRB) in 2014 and culturing was performed as described previously ([7]). The”
as §2

As for `Cc1cc(N2C[C@@H](C)N[C@@H](C)C2)ncc1-c1ccc(-c2nc3c(ccn3C)c(=O)[nH]2)cc1` [AZ6102], the IC50 in the test with WNT/β-catenin signaling was 16 ± 4.5 nM. In addition, the figures for the concentration for 50% growth inhibition (GI50) in test [1] and in test [2] were 50 nM and 6700 nM, respectively.
On the same counts, the results for `Oc1nc(-c2ccc(C(F)(F)F)cc2)nc2c1CSCC2` [XAV939] are 220 ± 21 nM, above 10000 nM and 9500 nM.

Broadly, the IC50 is the point on the concentration scale where inhibition reaches its midpoint. A word on the GI50: it is the concentration that inhibits growth by half.

Values taken from article PMC9981206 (Cancer Research Communications, 2022).
